Reference: US8058305B2, “Pyrrolidine derivatives as prostaglandin modulators” (Merck Serono SA, priority 2001, dated 2011)

Key:
h-EP2 [1] = molecular target: T1, h-EP2 (Homo sapiens, UniProt P43116); assay: Prostaglandin EP2 receptor binding assay (3H-PGE2, SPA); conditions: EP2 receptor membranes, 20 nM 3H-PGE2, pH 6.0, 2 hrs at room temperature
T1 construct: expressed in transfected cells; host or cells: HEK293-EBNA
Method: Compounds of the invention were tested in an EP2 receptor binding assay of the following protocol. As referred to herein, the term a “standard EP2 receptor binding assay” designates the following protocol which allows the determination of the affinity of the test compounds for the EP2 receptor

h-EP2 [2] = molecular target: T1, h-EP2; assay: EP2 total cAMP assay; format: cell-based; conditions: HEK293-EBNA cells transfected with pCEP4-hEP2, 1 hour at 37° C.
Method: Compounds of the invention were tested in a total cAMP assay as follows. HEK293-EBNA cells transfected with pCEP4-hEP2 receptors were seeded in 96 well opaque plate (Costar #3917) at 4×10^4 cells per well in 100 μl of culture medium (D-MEM/F12 supplemented with 10% FBS, […] L-glutamine, and 250 μg/ml of hygromycin; all from GibcoBRL) and incubated at 37° C. After overnight incubation, the medium was removed from each well and replaced with 45 μl of assay medium consisted of phenol red free D-MEM/F-12, 0.1% BSA (GibcoBRL) and 0.1 mM3-isobutyl-1-methyl-xanthine (Sigma). After 15 minutes of incubation at 37° C., 16-16-dimethyl PGE-2 or compounds at desired concentrations in 20 μl of assay medium were added to cells and further incubated at 37° C. for 1 hour. Total cAMP (intra- and extra-cellular) was measured by using a cAMP-screen ELISA System (Tropix, #CS1000).

h-EP4 = h-EP4 (Homo sapiens, UniProt P35408); assay: EP4 receptor binding assay (3H-PGE2, SPA); conditions: EP4 receptor membranes, 20 nM 3H-PGE2, pH 6.0, 2 hrs at room temperature
Method: Compounds of the invention were tested in an EP4 receptor binding assay of the following protocol which allows the determination of the affinity of the test compounds for the EP4 receptor.

T1 sequence (P43116 whole entry): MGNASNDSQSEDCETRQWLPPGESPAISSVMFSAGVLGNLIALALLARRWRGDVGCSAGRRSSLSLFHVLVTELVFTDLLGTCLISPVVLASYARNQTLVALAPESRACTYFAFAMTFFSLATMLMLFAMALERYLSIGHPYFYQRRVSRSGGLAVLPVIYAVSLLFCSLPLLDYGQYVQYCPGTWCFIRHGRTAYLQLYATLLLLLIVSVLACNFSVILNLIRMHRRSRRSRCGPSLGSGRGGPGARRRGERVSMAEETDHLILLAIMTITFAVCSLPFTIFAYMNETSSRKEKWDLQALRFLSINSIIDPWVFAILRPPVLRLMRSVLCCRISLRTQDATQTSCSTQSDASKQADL
Chain of h-EP4 (P35408 whole entry): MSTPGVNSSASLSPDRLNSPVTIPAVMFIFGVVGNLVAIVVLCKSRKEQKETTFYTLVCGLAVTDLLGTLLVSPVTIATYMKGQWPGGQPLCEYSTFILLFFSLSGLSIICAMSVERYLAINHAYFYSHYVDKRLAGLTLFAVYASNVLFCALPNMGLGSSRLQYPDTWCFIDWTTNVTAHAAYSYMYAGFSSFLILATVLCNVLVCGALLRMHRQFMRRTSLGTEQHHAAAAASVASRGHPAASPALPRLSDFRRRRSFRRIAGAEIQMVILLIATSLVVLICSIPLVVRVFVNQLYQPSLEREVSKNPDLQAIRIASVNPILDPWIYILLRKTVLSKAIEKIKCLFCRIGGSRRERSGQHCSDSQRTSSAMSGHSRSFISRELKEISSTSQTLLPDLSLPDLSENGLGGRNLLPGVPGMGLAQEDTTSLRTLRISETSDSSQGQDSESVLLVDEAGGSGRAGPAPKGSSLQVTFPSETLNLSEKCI

Ki (h-EP2 [1]) [µM] | EC50 (h-EP2 [2]) [µM] | Ki (h-EP4) [µM] | Compound
5.6 | 0.048 | – | CCCCC[C@@H](O)CCCN1CC[C@@H](Cl)C1C/C=C\CCCC(=O)O (stereo in doubt) [Example 1, (5Z)7-[(2R,3R)-3-Chloro-1-(4-hydroxynonyl)-pyrrolidin-2-yl]-hept-5-enoic acid]
3.5 | 0.25 | – | CCCCC1(C(O)CCCN2CC[C@@H](Cl)[C@@H]2CCc2ccc(C(=O)O)cc2)CCC1 (stereo in doubt) [Example 11, 4-(2-{1-[4-(1-butylcyclobutyl)-4-hydroxybutyl]-3-chloropyrrolidin-2-yl}ethyl)benzoic acid]
10 | 0.37 | 0.005 | Cc1cccc(CC(O)CCN2CCC(=O)[C@@H]2C/C=C\CCCC(=O)O)c1 (stereo partly drawn) [Example 13, (5Z)-7-{(2S)-1-[3-hydroxy-4-(3-methylphenyl)butyl]-3-oxopyrrolidin-2-yl}hept-5-enoic acid]
11 | 8.5 | 0.156 | (5Z)-7-{(trans-2,3)-3-Chloro-1-[(4S and 4 R)-hydroxy-4-(1-butylcyclobutyl)butyl]pyrrolidin-2-yl}hept-5-enoic acid [Example 15]
